How the values were obtained:
DNA = conditions: compared with other mutagenic agents; cited from earlier work
mouse ES stem cells = experiment: Chemical mutagenesis of cell suspensions, cytotoxicity of the mutagen; type: cell-based; conditions: cell suspensions (eg, mouse ES stem cells) exposed to doses as high as 0.4 mg/mL for 2 to 3 hours
Text: In this regard, numerous chemical mutagens have been described and used in the past, as described for instance by Russell et al., Biology of Mammalian Germ Cell Mutagenesis, Cold Spring Harbor Laboratory Press, 1990:271-285; Rinchik E. M., Trends in Genetics, 1991;7(1):15-21; or Marker et al., Genetics, 1997;145(2):435-443. For mutagenesis, cells are preferably treated with increasing amounts of the chemical mutagen(s) either in whole animals or in cell suspensions, to assess the cytotoxicity of the chemical mutagen(s). Typical doses have been described in the literature as cited above. For example, cell suspensions (eg, mouse ES stem cells) are exposed to doses of N-ethyl-N-nitrosourea (ENU) as high as 0.4 mg/mL for 2 to 3 hours, which results in more than 98% of the cells dying. […] Other mutagens include for instance intercalating agents, alkylating agents, strand breaking agents, mismatch-inducing agents, etc.

CCN(N=O)C(N)=O [ENU, N-ethyl-N-nitrosourea]
efficiency in generating mutations relative to other agents (DNA): at least 10 times | cells dying (mouse ES stem cells): more than 98%
